# Experimental data taken from the supplement of paper PMC10733146.
# Columns and labels:
# Assay in all cases: viability relative to DMSO control (fraction); higher = less drug effect (more viable cells)
# Conditions in all cases: 48 h
# Palbociclib = compound: CC(=O)c1c(C)c2cnc(Nc3ccc(N4CCNCC4)cn3)nc2n(C2CCCC2)c1=O [Palbociclib]
# Summary of the method: (§1)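 Using 384-well plates with compounds already plated at five concentrations, one well per concentration, 4 × 10^4 primary mononuclear tumour cells were added per well. Cells were Ficoll-isolated from blood or bone marrow or came from processed lymph node, fresh or cryopreserved. They were kept for 48 h at 37 °C and 5% CO2 in RPMI-1640 supplemented with penicillin/streptomycin, L-glutamine and human serum, and viability was read as CellTiter-Glo luminescence relative to the median of 16 inner DMSO wells.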
# Venetoclax = compound: CC1(C)CCC(CN2CCN(c3ccc(C(=O)NS(=O)(=O)c4ccc(NCC5CCOCC5)c([N+](=O)[O-])c4)c(Oc4cnc5[nH]ccc5c4)c3)CC2)=C(c2ccc(Cl)cc2)C1 [Venetoclax]
# Summary of the method: as §1
# Navitoclax = compound: CC1(C)CCC(c2ccc(Cl)cc2)=C(CN2CCN(c3ccc(C(=O)NS(=O)(=O)c4ccc(N[C@H](CCN5CCOCC5)CSc5ccccc5)c(S(=O)(=O)C(F)(F)F)c4)cc3)CC2)C1 [Navitoclax]
# Summary of the method: as §1
# Barasertib = compound: CCN(CCCOc1ccc2c(Nc3cc(CC(=O)Nc4cccc(F)c4)[nH]n3)ncnc2c1)CCOP(=O)(O)O [Barasertib]
# Summary of the method: as §1
# EPZ-6438 = compound: CCN(c1cc(-c2ccc(CN3CCOCC3)cc2)cc(C(=O)NCc2c(C)cc(C)[nH]c2=O)c1C)C1CCOCC1 [EPZ-6438]
# Summary of the method: as §1
# I-BET-762 = compound: CCNC(=O)C[C@@H]1N=C(c2ccc(Cl)cc2)c2cc(OC)ccc2-n2c(C)nnc21 [I-BET-762]
# Summary of the method: as §1
# CPI-169 = compound: CCS(=O)(=O)N1CCC([C@@H](C)n2c(C)c(C(=O)NCc3c(OC)cc(C)[nH]c3=O)c3ccccc32)CC1 [CPI-169]
# Summary of the method: as §1
# [1] = compound: CCc1ccc(/C=C2/SC(=S)NC2=O)cc1
# Summary of the method: as §1
# [2] = compound: C[C@H](NC(=O)CCC(F)(F)F)C(=O)N[C@@H]1C(=O)N(CCO)c2ncccc2-c2ccccc21
# Summary of the method: as §1
# [3] = compound: C[C@H]1C[C@@H](n2c(Nc3ccc(OC(F)(F)F)cc3)nc3cc(CCC(=O)O)ccc32)CC(C)(C)C1
# Summary of the method: as §1
# Selinexor = compound: O=C(/C=C\n1cnc(-c2cc(C(F)(F)F)cc(C(F)(F)F)c2)n1)NNc1cnccn1 [Selinexor]
# Summary of the method: as §1
# [4] = compound: O=C(NO)c1cccc(C(=O)NCCc2ccccc2)c1
# Summary of the method: as §1
# Filgotinib = compound: O=C(Nc1nc2cccc(-c3ccc(CN4CCS(=O)(=O)CC4)cc3)n2n1)C1CC1 [Filgotinib]
# Summary of the method: as §1
# Thalidomide = compound: O=C1CCC(N2C(=O)c3ccccc3C2=O)C(=O)N1 [Thalidomide]
# Summary of the method: as §1
test system,measurement,setting,value
primary AML patient cells (S060),viability,Palbociclib; 0.024 µM,1.02
same,viability,Palbociclib; 0.12 µM,1
same,viability,Palbociclib; 0.6 µM,1.01
same,viability,Palbociclib; 3 µM,0.939
same,viability,Palbociclib; 15 µM,0.611
same,viability,Venetoclax; 0.00064 µM,1.01
same,viability,Venetoclax; 0.0032 µM,1.01
same,viability,Venetoclax; 0.016 µM,0.978
same,viability,Venetoclax; 0.08 µM,1.05
same,viability,Venetoclax; 0.4 µM,1
same,viability,Navitoclax; 0.0032 µM,1.03
same,viability,Navitoclax; 0.016 µM,1.01
same,viability,Navitoclax; 0.08 µM,1.02
same,viability,Navitoclax; 0.4 µM,1.02
same,viability,Navitoclax; 2 µM,1
same,viability,Barasertib; 0.0008 µM,0.905
same,viability,Barasertib; 0.004 µM,0.901
same,viability,Barasertib; 0.02 µM,0.935
same,viability,Barasertib; 0.1 µM,0.907
same,viability,Barasertib; 0.5 µM,0.949
same,viability,EPZ-6438; 0.024 µM,1.02
same,viability,EPZ-6438; 0.12 µM,1.05
same,viability,EPZ-6438; 0.6 µM,1.03
same,viability,EPZ-6438; 3 µM,1.05
same,viability,EPZ-6438; 15 µM,1.05
same,viability,I-BET-762; 0.008 µM,0.968
same,viability,I-BET-762; 0.04 µM,0.952
same,viability,I-BET-762; 0.2 µM,0.923
same,viability,I-BET-762; 1 µM,0.806
same,viability,I-BET-762; 5 µM,0.563
same,viability,CPI-169; 0.024 µM,1.07
same,viability,CPI-169; 0.12 µM,1.07
same,viability,CPI-169; 0.6 µM,1.06
same,viability,CPI-169; 3 µM,1.14
same,viability,CPI-169; 15 µM,1.18
same,viability,[1]; 0.024 µM,0.968
same,viability,[1]; 0.12 µM,0.967
same,viability,[1]; 0.6 µM,0.988
same,viability,[1]; 3 µM,0.943
same,viability,[1]; 15 µM,0.986
same,viability,[2]; 0.016 µM,1.09
same,viability,[2]; 0.08 µM,1.06
same,viability,[2]; 0.4 µM,0.976
same,viability,[2]; 2 µM,1.05
same,viability,[2]; 10 µM,0.92
same,viability,[3]; 0.024 µM,0.919
same,viability,[3]; 0.12 µM,1.1
same,viability,[3]; 0.6 µM,1.01
same,viability,[3]; 3 µM,0.993
same,viability,[3]; 15 µM,0.986
same,viability,Selinexor; 0.008 µM,1.04
same,viability,Selinexor; 0.04 µM,1.01
same,viability,Selinexor; 0.2 µM,1.01
same,viability,Selinexor; 1 µM,1.03
same,viability,Selinexor; 5 µM,0.853
same,viability,[4]; 0.024 µM,1.01
same,viability,[4]; 0.12 µM,1.03
same,viability,[4]; 0.6 µM,1.01
same,viability,[4]; 3 µM,1.02
same,viability,[4]; 15 µM,1.03
same,viability,Filgotinib; 0.024 µM,0.927
same,viability,Filgotinib; 0.12 µM,0.935
same,viability,Filgotinib; 0.6 µM,0.908
same,viability,Filgotinib; 3 µM,0.917
same,viability,Filgotinib; 15 µM,0.129
same,viability,Thalidomide; 0.032 µM,0.934
same,viability,Thalidomide; 0.16 µM,0.944
same,viability,Thalidomide; 0.8 µM,0.922
same,viability,Thalidomide; 4 µM,0.928
same,viability,Thalidomide; 20 µM,0.947
primary FL patient cells (S087),viability,Palbociclib; 0.024 µM,0.979
same,viability,Palbociclib; 0.12 µM,0.917
same,viability,Palbociclib; 0.6 µM,0.947
same,viability,Palbociclib; 3 µM,0.788
same,viability,Palbociclib; 15 µM,0.123
same,viability,Venetoclax; 0.00064 µM,1.01
same,viability,Venetoclax; 0.0032 µM,0.938
same,viability,Venetoclax; 0.016 µM,0.74
same,viability,Venetoclax; 0.08 µM,0.364
same,viability,Venetoclax; 0.4 µM,0.0932
same,viability,Navitoclax; 0.0032 µM,0.95
same,viability,Navitoclax; 0.016 µM,1.01
same,viability,Navitoclax; 0.08 µM,0.82
same,viability,Navitoclax; 0.4 µM,0.508
same,viability,Navitoclax; 2 µM,0.084
same,viability,Barasertib; 0.0008 µM,0.918
same,viability,Barasertib; 0.004 µM,0.907
same,viability,Barasertib; 0.02 µM,0.967
same,viability,Barasertib; 0.1 µM,1.03
same,viability,Barasertib; 0.5 µM,1.01
same,viability,EPZ-6438; 0.024 µM,1.02
same,viability,EPZ-6438; 0.12 µM,1.01
same,viability,EPZ-6438; 0.6 µM,1.03
same,viability,EPZ-6438; 3 µM,0.993
same,viability,EPZ-6438; 15 µM,0.93
same,viability,I-BET-762; 0.008 µM,0.99
same,viability,I-BET-762; 0.04 µM,1.02
same,viability,I-BET-762; 0.2 µM,0.963
same,viability,I-BET-762; 1 µM,0.901
same,viability,I-BET-762; 5 µM,0.837
same,viability,CPI-169; 0.024 µM,0.99
same,viability,CPI-169; 0.12 µM,1.01
same,viability,CPI-169; 0.6 µM,0.99
same,viability,CPI-169; 3 µM,1
same,viability,CPI-169; 15 µM,0.955
same,viability,[1]; 0.024 µM,0.862
same,viability,[1]; 0.12 µM,0.862
same,viability,[1]; 0.6 µM,0.99
same,viability,[1]; 3 µM,0.923
same,viability,[1]; 15 µM,0.943
same,viability,[2]; 0.016 µM,1.02
same,viability,[2]; 0.08 µM,1.02
same,viability,[2]; 0.4 µM,1.05
same,viability,[2]; 2 µM,1.03
same,viability,[2]; 10 µM,0.98
same,viability,[3]; 0.024 µM,0.885
same,viability,[3]; 0.12 µM,0.938
same,viability,[3]; 0.6 µM,0.904
same,viability,[3]; 3 µM,0.829
same,viability,[3]; 15 µM,0.93
same,viability,Selinexor; 0.008 µM,0.903
same,viability,Selinexor; 0.04 µM,0.872
same,viability,Selinexor; 0.2 µM,0.724
same,viability,Selinexor; 1 µM,0.681
same,viability,Selinexor; 5 µM,0.685
same,viability,[4]; 0.024 µM,1.02
same,viability,[4]; 0.12 µM,0.957
same,viability,[4]; 0.6 µM,1.08
same,viability,[4]; 3 µM,1.04
same,viability,[4]; 15 µM,0.912
same,viability,Filgotinib; 0.024 µM,1.04
same,viability,Filgotinib; 0.12 µM,0.977
same,viability,Filgotinib; 0.6 µM,1
same,viability,Filgotinib; 3 µM,0.916
same,viability,Filgotinib; 15 µM,0.737
same,viability,Thalidomide; 0.032 µM,0.986
same,viability,Thalidomide; 0.16 µM,0.925
same,viability,Thalidomide; 0.8 µM,0.951
same,viability,Thalidomide; 4 µM,0.996
same,viability,Thalidomide; 20 µM,0.985
primary CLL patient cells (S031),viability,Palbociclib; 0.024 µM,0.971
same,viability,Palbociclib; 0.12 µM,0.805
same,viability,Palbociclib; 0.6 µM,0.662
same,viability,Palbociclib; 3 µM,0.363
same,viability,Palbociclib; 15 µM,0.317
same,viability,Venetoclax; 0.00064 µM,0.848
same,viability,Venetoclax; 0.0032 µM,0.559
same,viability,Venetoclax; 0.016 µM,0.246
same,viability,Venetoclax; 0.08 µM,0.0921
same,viability,Venetoclax; 0.4 µM,0.0313
same,viability,Navitoclax; 0.0032 µM,1.03
same,viability,Navitoclax; 0.016 µM,0.762
same,viability,Navitoclax; 0.08 µM,0.361
same,viability,Navitoclax; 0.4 µM,0.109
same,viability,Navitoclax; 2 µM,0.0291
same,viability,Barasertib; 0.0008 µM,0.781
same,viability,Barasertib; 0.004 µM,0.764
same,viability,Barasertib; 0.02 µM,0.85
same,viability,Barasertib; 0.1 µM,0.954
same,viability,Barasertib; 0.5 µM,0.93
same,viability,EPZ-6438; 0.024 µM,0.927
same,viability,EPZ-6438; 0.12 µM,0.931
same,viability,EPZ-6438; 0.6 µM,0.939
same,viability,EPZ-6438; 3 µM,0.915
same,viability,EPZ-6438; 15 µM,0.8
same,viability,I-BET-762; 0.008 µM,0.986
same,viability,I-BET-762; 0.04 µM,0.964
same,viability,I-BET-762; 0.2 µM,0.969
same,viability,I-BET-762; 1 µM,0.842
same,viability,I-BET-762; 5 µM,0.628
same,viability,CPI-169; 0.024 µM,0.891
same,viability,CPI-169; 0.12 µM,0.931
same,viability,CPI-169; 0.6 µM,0.925
same,viability,CPI-169; 3 µM,0.895
same,viability,CPI-169; 15 µM,0.799
same,viability,[1]; 0.024 µM,0.63
same,viability,[1]; 0.12 µM,0.764
same,viability,[1]; 0.6 µM,0.871
same,viability,[1]; 3 µM,0.828
same,viability,[1]; 15 µM,0.821
same,viability,[2]; 0.016 µM,0.929
same,viability,[2]; 0.08 µM,0.966
same,viability,[2]; 0.4 µM,0.83
same,viability,[2]; 2 µM,0.918
same,viability,[2]; 10 µM,0.852
same,viability,[3]; 0.024 µM,0.737
same,viability,[3]; 0.12 µM,0.895
same,viability,[3]; 0.6 µM,0.868
same,viability,[3]; 3 µM,0.774
same,viability,[3]; 15 µM,0.805
same,viability,Selinexor; 0.008 µM,0.832
same,viability,Selinexor; 0.04 µM,0.762
same,viability,Selinexor; 0.2 µM,0.706
same,viability,Selinexor; 1 µM,0.561
same,viability,Selinexor; 5 µM,0.387
same,viability,[4]; 0.024 µM,1.04
same,viability,[4]; 0.12 µM,0.976
same,viability,[4]; 0.6 µM,0.921
same,viability,[4]; 3 µM,0.972
same,viability,[4]; 15 µM,0.966
same,viability,Filgotinib; 0.024 µM,1.03
same,viability,Filgotinib; 0.12 µM,0.984
same,viability,Filgotinib; 0.6 µM,1.08
same,viability,Filgotinib; 3 µM,0.962
same,viability,Filgotinib; 15 µM,0.284
same,viability,Thalidomide; 0.032 µM,0.913
same,viability,Thalidomide; 0.16 µM,0.974
same,viability,Thalidomide; 0.8 µM,0.95
same,viability,Thalidomide; 4 µM,0.97
same,viability,Thalidomide; 20 µM,0.961
